Measured values: ChEMBL document CHEMBL4049403, “Oligo-aspartic acid conjugates with benzo[c][2,6]naphthyridine-8-carboxylic acid scaffold as picomolar inhibitors of CK2” (Bioorg Med Chem, 2017)
Where a SMILES comes first, the peptide text is derived from it. The star is where a group is joined. X1 = O=C(O)c1ccc2c(c1)nc(OCCCCCCCCC(=O)*)c1ccncc12

Experiments:
[1] = target: Misshapen-like kinase 1 (Homo sapiens) (UniProt Q8N4C8); assay: Inhibition of human MINK1 assessed as residual activity at 1 uM in presence of [33P]ATP by filter binding assay relative to control
[2] = target: Mitogen-activated protein kinase 7 (Homo sapiens) (UniProt Q13164); assay: Inhibition of human ERK5 assessed as residual activity at 1 uM in presence of 33P-ATP by filter-binding assay relative to control
[3] = target: Mitogen-activated protein kinase 13 (Homo sapiens) (UniProt O15264); assay: Inhibition of human P38d MAPK assessed as residual activity at 1 uM in presence of [33P]ATP by filter binding assay relative to control
[4] = target: Serine/threonine-protein kinase 16 (Homo sapiens) (UniProt O75716); assay: Inhibition of human MPSK1 assessed as residual activity at 1 uM in presence of [33P]ATP by filter binding assay relative to control
[5] = target: Mitogen-activated protein kinase 3 (Homo sapiens) (UniProt P27361); assay: Inhibition of human ERK1 assessed as residual activity at 1 uM in presence of [33P]ATP by filter binding assay relative to control
[6] = target: Homeodomain-interacting protein kinase 1 (Homo sapiens) (UniProt Q86Z02); assay: Inhibition of human HIPK1 assessed as residual activity at 1 uM in presence of [33P]ATP by filter binding assay relative to control
[7] = target: Ephrin type-A receptor 2 (Homo sapiens) (UniProt P29317); assay: Inhibition of human EPHA2 assessed as residual activity at 1 uM in presence of [33P]ATP by filter binding assay relative to control
[8] = target: Platelet-derived growth factor receptor alpha (Homo sapiens) (UniProt P16234); assay: Inhibition of human PDGFRA assessed as residual activity at 1 uM in presence of [33P]ATP by filter binding assay relative to control
[9] = target: Serine/threonine-protein kinase Chk1 (Homo sapiens) (UniProt O14757); assay: Inhibition of human CHK1 assessed as residual activity at 1 uM in presence of [33P]ATP by filter binding assay relative to control
[10] = target: Mitogen-activated protein kinase kinase kinase 7 (Homo sapiens) (UniProt O43318); assay: Inhibition of human TAK1 assessed as residual activity at 1 uM in presence of [33P]ATP by filter binding assay relative to control
[11] = target: Protein kinase C zeta type (Homo sapiens) (UniProt Q05513); assay: Inhibition of human PKCZ assessed as residual activity at 1 uM in presence of [33P]ATP by filter binding assay relative to control
[12] = target: Serine/threonine-protein kinase 33 (Homo sapiens) (UniProt Q9BYT3); assay: Inhibition of human STK33 assessed as residual activity at 1 uM in presence of [33P]ATP by filter binding assay relative to control
[13] = target: Protein kinase C gamma type (Homo sapiens) (UniProt P05129); assay: Inhibition of human PKCgamma assessed as residual activity at 1 uM in presence of [33P]ATP by filter binding assay relative to control
[14] = target: Serine/threonine-protein kinase WNK1 (Homo sapiens) (UniProt Q9H4A3); assay: Inhibition of human WNK1 assessed as residual activity at 1 uM in presence of [33P]ATP by filter binding assay relative to control
[15] = target: Mitogen-activated protein kinase kinase kinase 1 (Homo sapiens) (UniProt Q13233); assay: Inhibition of human MEKK1 assessed as residual activity at 1 uM in presence of [33P]ATP by filter binding assay relative to control
[16] = target: Tyrosine-protein kinase ZAP-70 (Homo sapiens) (UniProt P43403); assay: Inhibition of human ZAP70 assessed as residual activity at 1 uM in presence of [33P]ATP by filter binding assay relative to control
[17] = target: Homeodomain-interacting protein kinase 3 (Homo sapiens) (UniProt Q9H422); assay: Inhibition of human HIPK3 assessed as residual activity at 1 uM in presence of 33P-ATP by filter-binding assay relative to control
[18] = target: Serine/threonine-protein kinase TAO1 (Homo sapiens) (UniProt Q7L7X3); assay: Inhibition of human TAO1 assessed as residual activity at 1 uM in presence of 33P-ATP by filter-binding assay relative to control
[19] = target: Tau-tubulin kinase 2 (Homo sapiens) (UniProt Q6IQ55); assay: Inhibition of human TTBK2 assessed as residual activity at 1 uM in presence of [33P]ATP by filter binding assay relative to control
[20] = target: Ephrin type-B receptor 1 (Homo sapiens) (UniProt P54762); assay: Inhibition of human EPHB1 assessed as residual activity at 1 uM in presence of [33P]ATP by filter binding assay relative to control
[21] = target: MAP kinase-activated protein kinase 3 (Homo sapiens) (UniProt Q16644); assay: Inhibition of human MAPKAP-K3 assessed as residual activity at 1 uM in presence of [33P]ATP by filter binding assay relative to control
[22] = target: Dual specificity protein kinase CLK2 (Homo sapiens) (UniProt P49760); assay: Inhibition of human CLK2 assessed as residual activity at 1 uM in presence of 33P-ATP by filter-binding assay relative to control
[23] = target: Serine/threonine-protein kinase PAK 6 (Homo sapiens) (UniProt Q9NQU5); assay: Inhibition of human PAK6 assessed as residual activity at 1 uM in presence of [33P]ATP by filter binding assay relative to control
[24] = target: MAP kinase-interacting serine/threonine-protein kinase 2 (Homo sapiens) (UniProt Q9HBH9); assay: Inhibition of human MNK2 assessed as residual activity at 1 uM in presence of [33P]ATP by filter binding assay relative to control
[25] = target: Serine/threonine-protein kinase 3 (Homo sapiens) (UniProt Q13188); assay: Inhibition of human MST2 assessed as residual activity at 1 uM in presence of [33P]ATP by filter binding assay relative to control
[26] = target: Serine/threonine-protein kinase SIK2 (Homo sapiens) (UniProt Q9H0K1); assay: Inhibition of human SIK2 assessed as residual activity at 1 uM in presence of [33P]ATP by filter binding assay relative to control
[27] = target: Glycogen synthase kinase-3 beta (Homo sapiens) (UniProt P49841); assay: Inhibition of human GSK3beta assessed as residual activity at 1 uM in presence of 33P-ATP by filter-binding assay relative to control
[28] = target: Casein kinase II subunit alpha (Homo sapiens, UniProt P68400); assay: Inhibition of ARC-1504 binding to CK2alpha (unknown origin) (1 to 335 residues) measured after 15 mins by fluorescence anisotropic method
[29] = target: Tau-tubulin kinase 1 (Homo sapiens) (UniProt Q5TCY1); assay: Inhibition of human TTBK1 assessed as residual activity at 1 uM in presence of [33P]ATP by filter binding assay relative to control

Casein kinase II subunit alpha, sequence (P68400 whole entry, the tested form may be a part): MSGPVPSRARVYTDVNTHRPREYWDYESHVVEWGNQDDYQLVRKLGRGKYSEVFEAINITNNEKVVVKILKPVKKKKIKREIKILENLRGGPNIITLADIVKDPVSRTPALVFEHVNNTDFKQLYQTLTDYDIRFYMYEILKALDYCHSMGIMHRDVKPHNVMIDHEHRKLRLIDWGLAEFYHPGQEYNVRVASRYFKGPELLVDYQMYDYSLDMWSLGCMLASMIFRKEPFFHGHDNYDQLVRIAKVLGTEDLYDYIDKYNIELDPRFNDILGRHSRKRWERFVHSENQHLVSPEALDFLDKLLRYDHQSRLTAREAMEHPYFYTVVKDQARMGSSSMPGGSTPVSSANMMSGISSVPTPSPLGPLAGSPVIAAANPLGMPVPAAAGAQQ
Serine/threonine-protein kinase WNK1 (Homo sapiens), sequence (Q9H4A3 whole entry, looked up): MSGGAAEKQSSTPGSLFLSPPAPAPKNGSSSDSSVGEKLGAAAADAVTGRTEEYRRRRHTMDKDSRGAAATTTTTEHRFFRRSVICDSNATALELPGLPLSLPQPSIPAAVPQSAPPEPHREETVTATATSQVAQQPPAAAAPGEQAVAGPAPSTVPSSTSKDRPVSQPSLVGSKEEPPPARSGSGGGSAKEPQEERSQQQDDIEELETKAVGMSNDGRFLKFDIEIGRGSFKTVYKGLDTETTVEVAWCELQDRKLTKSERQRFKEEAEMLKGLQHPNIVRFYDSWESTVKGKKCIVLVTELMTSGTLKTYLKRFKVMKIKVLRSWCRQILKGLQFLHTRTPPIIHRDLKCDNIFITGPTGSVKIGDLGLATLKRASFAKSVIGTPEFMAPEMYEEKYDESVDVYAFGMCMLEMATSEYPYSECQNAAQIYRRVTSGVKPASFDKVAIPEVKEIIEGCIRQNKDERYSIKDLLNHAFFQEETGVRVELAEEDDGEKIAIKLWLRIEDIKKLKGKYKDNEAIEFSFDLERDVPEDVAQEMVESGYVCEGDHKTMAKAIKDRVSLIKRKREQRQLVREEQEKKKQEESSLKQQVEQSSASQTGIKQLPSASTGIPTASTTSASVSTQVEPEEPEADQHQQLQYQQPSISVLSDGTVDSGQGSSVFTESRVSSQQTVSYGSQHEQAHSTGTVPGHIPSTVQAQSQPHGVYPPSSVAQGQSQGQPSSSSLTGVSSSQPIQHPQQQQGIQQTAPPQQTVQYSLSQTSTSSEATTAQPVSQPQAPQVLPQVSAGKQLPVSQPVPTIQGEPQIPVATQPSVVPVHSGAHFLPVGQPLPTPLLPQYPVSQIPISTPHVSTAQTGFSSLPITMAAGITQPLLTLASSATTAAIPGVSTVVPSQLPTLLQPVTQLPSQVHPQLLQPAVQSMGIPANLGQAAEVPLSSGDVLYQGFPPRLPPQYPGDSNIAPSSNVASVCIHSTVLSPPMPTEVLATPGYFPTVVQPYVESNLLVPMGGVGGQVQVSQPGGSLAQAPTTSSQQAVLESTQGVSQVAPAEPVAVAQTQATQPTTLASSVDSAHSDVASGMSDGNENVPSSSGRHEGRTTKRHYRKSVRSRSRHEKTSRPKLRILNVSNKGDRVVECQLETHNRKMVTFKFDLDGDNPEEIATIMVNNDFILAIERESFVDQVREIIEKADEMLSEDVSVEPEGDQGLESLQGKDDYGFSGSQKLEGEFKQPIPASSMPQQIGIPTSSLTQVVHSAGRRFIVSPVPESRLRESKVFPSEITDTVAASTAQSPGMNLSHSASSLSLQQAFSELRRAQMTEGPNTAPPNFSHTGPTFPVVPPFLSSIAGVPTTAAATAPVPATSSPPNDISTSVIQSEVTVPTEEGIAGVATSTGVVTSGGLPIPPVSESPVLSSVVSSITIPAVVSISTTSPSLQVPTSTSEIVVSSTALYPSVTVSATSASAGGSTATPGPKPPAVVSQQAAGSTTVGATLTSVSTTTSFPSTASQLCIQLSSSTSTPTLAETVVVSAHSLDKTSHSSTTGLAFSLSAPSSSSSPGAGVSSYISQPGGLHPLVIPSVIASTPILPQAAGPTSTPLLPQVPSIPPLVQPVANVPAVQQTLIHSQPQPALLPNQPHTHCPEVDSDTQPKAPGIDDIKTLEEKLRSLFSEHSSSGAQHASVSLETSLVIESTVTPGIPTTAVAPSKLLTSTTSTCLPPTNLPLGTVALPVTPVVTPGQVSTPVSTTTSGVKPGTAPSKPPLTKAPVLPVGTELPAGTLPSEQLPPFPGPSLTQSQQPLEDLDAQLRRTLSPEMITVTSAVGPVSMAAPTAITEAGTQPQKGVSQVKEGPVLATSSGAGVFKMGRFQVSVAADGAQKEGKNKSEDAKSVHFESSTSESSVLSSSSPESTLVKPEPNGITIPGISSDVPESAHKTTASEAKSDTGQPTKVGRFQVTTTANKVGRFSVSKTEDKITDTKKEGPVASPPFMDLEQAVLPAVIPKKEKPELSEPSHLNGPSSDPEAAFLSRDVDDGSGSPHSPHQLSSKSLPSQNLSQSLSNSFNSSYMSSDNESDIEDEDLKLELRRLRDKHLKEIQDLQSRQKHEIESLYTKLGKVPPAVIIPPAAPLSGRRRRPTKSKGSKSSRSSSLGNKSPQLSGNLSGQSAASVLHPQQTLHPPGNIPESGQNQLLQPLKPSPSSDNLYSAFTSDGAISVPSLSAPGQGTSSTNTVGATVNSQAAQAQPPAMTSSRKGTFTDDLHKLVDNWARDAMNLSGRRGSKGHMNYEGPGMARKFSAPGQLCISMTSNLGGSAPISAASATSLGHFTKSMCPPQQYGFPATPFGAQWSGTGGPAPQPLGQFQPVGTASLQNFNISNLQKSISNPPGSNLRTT
Dual specificity protein kinase CLK2 (Homo sapiens), sequence (P49760 whole entry, looked up): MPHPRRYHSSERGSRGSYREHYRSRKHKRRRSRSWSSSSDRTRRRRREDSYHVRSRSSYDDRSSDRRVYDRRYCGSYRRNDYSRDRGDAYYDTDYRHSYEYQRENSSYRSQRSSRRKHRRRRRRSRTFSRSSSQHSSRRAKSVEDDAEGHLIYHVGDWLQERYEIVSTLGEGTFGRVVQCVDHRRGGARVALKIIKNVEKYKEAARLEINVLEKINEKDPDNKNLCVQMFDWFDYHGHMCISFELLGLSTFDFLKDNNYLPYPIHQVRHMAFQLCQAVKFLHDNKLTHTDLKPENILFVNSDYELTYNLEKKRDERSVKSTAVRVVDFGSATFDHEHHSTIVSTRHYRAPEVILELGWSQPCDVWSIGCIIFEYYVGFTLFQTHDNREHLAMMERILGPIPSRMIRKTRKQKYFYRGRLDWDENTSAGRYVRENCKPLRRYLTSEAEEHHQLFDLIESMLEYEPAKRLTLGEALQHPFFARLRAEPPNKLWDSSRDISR
Homeodomain-interacting protein kinase 1 (Homo sapiens), sequence (Q86Z02 whole entry, looked up): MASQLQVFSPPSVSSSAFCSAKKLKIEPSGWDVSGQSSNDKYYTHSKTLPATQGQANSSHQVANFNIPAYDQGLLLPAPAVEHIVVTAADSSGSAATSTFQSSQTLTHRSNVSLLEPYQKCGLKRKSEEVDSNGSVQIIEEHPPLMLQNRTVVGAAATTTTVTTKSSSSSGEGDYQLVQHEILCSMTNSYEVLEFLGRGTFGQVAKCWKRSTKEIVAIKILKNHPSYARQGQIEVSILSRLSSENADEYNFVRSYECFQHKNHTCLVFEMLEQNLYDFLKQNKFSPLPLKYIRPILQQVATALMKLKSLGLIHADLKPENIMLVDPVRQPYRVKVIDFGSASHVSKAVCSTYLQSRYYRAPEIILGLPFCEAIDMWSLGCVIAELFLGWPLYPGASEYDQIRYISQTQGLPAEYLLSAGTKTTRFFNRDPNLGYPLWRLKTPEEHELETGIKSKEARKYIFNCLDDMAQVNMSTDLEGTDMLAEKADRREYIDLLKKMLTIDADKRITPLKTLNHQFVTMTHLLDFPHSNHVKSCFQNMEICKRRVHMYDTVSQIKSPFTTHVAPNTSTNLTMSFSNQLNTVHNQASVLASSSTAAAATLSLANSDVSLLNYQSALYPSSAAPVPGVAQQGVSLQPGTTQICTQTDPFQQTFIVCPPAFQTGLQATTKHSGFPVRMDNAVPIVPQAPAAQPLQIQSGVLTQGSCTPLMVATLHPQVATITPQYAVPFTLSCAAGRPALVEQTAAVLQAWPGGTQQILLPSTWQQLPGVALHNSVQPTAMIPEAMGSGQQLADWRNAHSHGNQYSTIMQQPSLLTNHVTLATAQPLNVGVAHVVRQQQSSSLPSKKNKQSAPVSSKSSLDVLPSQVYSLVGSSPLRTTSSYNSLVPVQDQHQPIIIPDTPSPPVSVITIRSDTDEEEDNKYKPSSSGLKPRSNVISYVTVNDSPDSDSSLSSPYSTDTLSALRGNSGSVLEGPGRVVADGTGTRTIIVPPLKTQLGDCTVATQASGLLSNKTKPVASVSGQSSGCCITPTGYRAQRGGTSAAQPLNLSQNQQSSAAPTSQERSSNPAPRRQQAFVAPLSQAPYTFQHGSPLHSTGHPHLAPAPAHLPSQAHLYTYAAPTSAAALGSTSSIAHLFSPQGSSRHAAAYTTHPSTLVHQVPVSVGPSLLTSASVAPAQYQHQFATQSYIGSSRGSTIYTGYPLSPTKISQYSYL
Serine/threonine-protein kinase Chk1 (Homo sapiens), sequence (O14757 whole entry): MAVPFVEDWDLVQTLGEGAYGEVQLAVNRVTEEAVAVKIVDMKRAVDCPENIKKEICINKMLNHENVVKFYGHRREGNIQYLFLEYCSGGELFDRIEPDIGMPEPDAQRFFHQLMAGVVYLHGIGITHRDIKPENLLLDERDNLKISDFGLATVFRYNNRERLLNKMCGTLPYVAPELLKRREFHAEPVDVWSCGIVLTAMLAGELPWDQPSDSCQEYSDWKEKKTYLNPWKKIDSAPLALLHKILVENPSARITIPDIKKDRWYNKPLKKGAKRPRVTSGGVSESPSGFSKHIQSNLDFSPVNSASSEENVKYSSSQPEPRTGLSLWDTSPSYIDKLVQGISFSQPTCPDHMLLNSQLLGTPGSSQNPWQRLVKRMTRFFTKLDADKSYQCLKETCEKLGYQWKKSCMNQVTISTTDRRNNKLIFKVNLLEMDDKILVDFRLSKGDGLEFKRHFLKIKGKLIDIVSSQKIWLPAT

- Activity [1]: 100%
- Activity [2]: 39%
- Activity [3]: 109%
- Activity [4]: 118%
- Activity [5]: 106%
- Activity [6]: 86%
- Activity [7]: 87%
- Activity [8]: 102%
- Activity [9]: 91%
- Activity [10]: 80%
- Activity [11]: 95%
- Activity [12]: 83%
- Activity [13]: 94%
- Activity [14]: 96%
- Activity [15]: 106%
- Activity [16]: 103%
- Activity [17]: 8%
- Activity [18]: 65%
- Activity [19]: 101%
- Activity [20]: 89%
- Activity [21]: 82%
- Activity [22]: 19%
- Activity [23]: 110%
- Activity [24]: 85%
- Activity [25]: 92%
- Activity [26]: 99%
- Activity [27]: 26%
- Kd ([28]; read-out: Kd): 0.037 nM
- Kd ([28]; read-out: pKd (converted)): 0.0316 nM
- Activity [29]: 97%
Compound: NCCCC[C@H](NC(=O)[C@H](CC(=O)O)NC(=O)[C@H](CC(=O)O)NC(=O)[C@H](CC(=O)O)NC(=O)[C@H](CC(=O)O)NC(=O)[C@H](CC(=O)O)NC(=O)[C@H](CC(=O)O)NC(=O)CCCCCCCCOc1nc2cc(C(=O)O)ccc2c2cnccc12)C(=O)O (X1-DDDDDDK-OH)
